According to ChEMBL document CHEMBL4007391, “Tackling Fungal Resistance by Biofilm Inhibitors” (J Med Chem, 2017):
pIC50: −log10 of the molar value. Converted amounts (≈) assume the structure as drawn.

Key:
[1] = test system: Candida albicans; assay: Antibiofilm activity against Candida albicans SC5314 after 24 hrs in presence of miconazole by Cell-Titer Blue assay; type: functional
[2] = test system: Candida albicans; assay: Antibiofilm activity against Candida albicans SC5314 clinical isolates after 24 hrs by XTT assay; type: functional
[3] = test system: Candida albicans; assay: Antibiofilm activity against Candida albicans SC5314 after 24 hrs by Cell-Titer Blue assay; type: functional
[4] = test system: Candida albicans; assay: Inhibition of biofilm formation of Candida albicans ATCC 90028 after 48 hrs in presence of voriconazole by XTT assay; type: functional
[5] = test system: Candida albicans; assay: Disruption of biofilm of Candida albicans ATCC 90028 after 48 hrs in presence of voriconazole by XTT assay; type: functional
[6] = test system: Candida albicans; assay: Disruption of biofilm of Candida albicans ATCC 90028 after 48 hrs in presence of fluconazole by XTT assay; type: functional
[7] = test system: Candida albicans; assay: Inhibition of biofilm formation of Candida albicans ATCC 90028 after 48 hrs in presence of fluconazole by XTT assay; type: functional
[8] = test system: Candida albicans; assay: Antibiofilm activity against fluconazole-resistant Candida albicans 29E clinical isolates after 48 hrs by Alamar blue assay; type: functional
[9] = test system: Candida albicans; assay: Antibiofilm activity against Candida albicans CAF2-1 after 48 hrs by Alamar blue assay; type: functional; details: CAF2-1, 48 h
[10] = test system: Candida albicans; assay: Antibiofilm activity against Candida albicans SC5314 after 48 hrs by Alamar blue assay; type: functional; details: SC5314, 48 h
[11] = test system: Candida albicans; assay: Antibiofilm activity against Candida albicans CAIF-100 after 24 hrs by Cell-Titer Blue assay; type: functional
[12] = test system: Candida albicans; assay: Antifungal activity against fluconazole-susceptible Candida albicans by broth microdilution assay; type: functional
[13] = test system: Candida albicans; assay: Antifungal activity against fluconazole-resistant Candida albicans by broth microdilution assay; type: functional
[14] = test system: Trichophyton mentagrophytes; assay: Antifungal activity against Trichophyton mentagrophytes KCTC 6077 clinical isolates after 7 days by two fold serial dilution method; type: functional; details: KCTC 6077, 168 h
[15] = test system: Candida albicans; assay: Antifungal activity against Candida albicans KCTC 1940 clinical isolates after 7 days by two fold serial dilution method; type: functional; details: KCTC 1940, 168 h
[16] = test system: Cryptococcus neoformans; assay: Antifungal activity against Cryptococcus neoformans KCTC 7224 clinical isolates after 7 days by two fold serial dilution method; type: functional; details: KCTC 7224, 168 h
[17] = test system: Candida albicans; assay: Inhibition of biofilm formation of fluconazole-resistant Candida albicans at 2 to 4 ug/ml after 24 hrs by XTT assay; type: functional
[18] = test system: Candida albicans; assay: Disruption of biofilm of fluconazole-resistant Candida albicans at 8 to 32 ug/ml after 24 hrs by XTT assay; type: functional
[19] = test system: Candida albicans; assay: Antifungal activity against fluconazole-resistant Candida albicans after 48 hrs by broth microdilution assay; type: functional
[20] = test system: Candida albicans; assay: Antifungal activity against Candida albicans by broth dilution assay; type: functional
[21] = test system: Candida albicans; assay: Inhibition of filament formation of tet-NRG1 expressing Candida albicans after 2 to 24 hrs; type: functional
[22] = Cytotoxicity against human HepG2 assessed as reduction in cell viability after 24 hrs by CellTiter-Glo luminescent assay; type: cell-based; details: HepG2 cells

Which “fractional inhibitory concentration index (FICI)” value [1] does the source give for `C[C@H]1[C@H](OC(=O)CCC(=O)O)O[C@@H]2O[C@@]3(C)CC[C@H]4[C@H](C)CC[C@@H]1[C@@]24OO3` [ARTESUNATE] here?
Its value is <0.069.

With `CCc1oc2ccccc2c1C(=O)c1cc(Br)c(O)c(Br)c1` [BENZBROMARONE] as the molecule, how does the pIC50 ([2]; Candida albicans, SC5314, 24 h) read?
Its pIC50 is 5.70.

With `Oc1c(Br)cc(Br)c2cccnc12` [BROXYQUINOLINE] as the molecule, how does the MBEC2 [3] read?
Its MBEC2 is 1.2 µM.

With `N=C(NCCCCCCNC(=N)NC(=N)Nc1ccc(Cl)cc1)NC(=N)Nc1ccc(Cl)cc1` [CHLORHEXIDINE] as the molecule, how does the pIC50 ([2]; Candida albicans, SC5314, 24 h) read?
The pIC50 was 4.66.

Which “fractional inhibitory concentration index (FICI)” value [4] does the source give for `CCN(CC)CCCC(C)Nc1ccnc2cc(Cl)ccc12` (centres undefined) [CHLOROQUINE] here?
The value was 0.156 - 0.25.

What about the “fractional inhibitory concentration index (FICI)” value [5] of the same molecule?
The value was 0.156 - 0.25.

What about the “fractional inhibitory concentration index (FICI)” value [6] of the same molecule?
Its value is 0.156 - 0.25.

What about the “fractional inhibitory concentration index (FICI)” value [7] of the same molecule?
Its value is 0.156 - 0.25.

With `Oc1c(Cl)cc(Cl)c2cccnc12` [CHLOROXINE] as the molecule, how does the pIC50 [8] read?
The pIC50 was 4.88 to 5.92.

What about the pIC50 ([2]; Candida albicans, SC5314, 24 h) of the same molecule?
The pIC50 was 5.57.

And the pIC50 [9]?
The pIC50 was 4.88 to 5.92.

What about the pIC50 [10] of the same molecule?
Its pIC50 is 4.88 to 5.92.

Which MBIC50 [11] does the source give for `CN(C)CC/C=C1/c2ccccc2Sc2ccc(Cl)cc21.Cl` [CHLORPROTHIXENE HYDROCHLORIDE] here?
The MBIC50 was 17 µM.

With `Oc1c(I)cc(Cl)c2cccnc12` [CLIOQUINOL] as the molecule, how does the pIC50 ([2]; Candida albicans, SC5314, 24 h) read?
Its pIC50 is 5.59.

Which MBIC50 [11] does the source give for `C#CCN(C)CCCOc1ccc(Cl)cc1Cl.Cl` [CLORGYLINE HYDROCHLORIDE] here?
Its MBIC50 is 24 µM.

For `O=C1c2cccc(O)c2C(=O)c2c(O)cccc21` [DANTHRON], which MBIC50 [11] is on record?
The MBIC50 was 12 µM.

Which MBIC50 [11] does the source give for `CCN(CC)CCOC(=O)C1(C2CCCCC2)CCCCC1.Cl` [DICYCLOMINE HYDROCHLORIDE] here?
The MBIC50 was 60 µM.

Which results are given for `COc1ccc2cc1Oc1ccc(cc1)C[C@H]1c3cc(c(OC)cc3CCN1C)Oc1c(OC)c(OC)cc3c1[C@H](C2)N(C)CC3` [FANCHININ]?
MIC80 [12]: 64 µg/mL (≈ 103 µM); MIC80 [13]: 64 µg/mL (≈ 103 µM)

With `CN(C)c1ccc(C(=C2C=CC(=[N+](C)C)C=C2)c2ccc(N(C)C)cc2)cc1.[Cl-]` [GENTIAN VIOLET] as the molecule, how does the MBEC2 [3] read?
Its MBEC2 is 1.5 µM.

With `Oc1c(Cl)cc(Cl)c(Cl)c1Cc1c(O)c(Cl)cc(Cl)c1Cl` [HEXACHLOROPHENE] as the molecule, how does the pIC50 ([2]; Candida albicans, SC5314, 24 h) read?
The pIC50 was 5.29.

What about the MBEC2 [3] of the same molecule?
Its MBEC2 is 9.3 µM.

For `C=CCc1ccc(O)c(-c2ccc(O)c(CC=C)c2)c1` [HONOKIOL], which MIC [14] is on record?
The MIC was 25 µg/mL (≈ 93.9 µM).

And the MIC [15]?
Its MIC is 16 to 32 µg/mL (≈ 60.1 to 120 µM).

What about the MIC [16] of the same molecule?
Its MIC is 25 µg/mL (≈ 93.9 µM).

With `C=CCc1ccc(O)c(-c2cc(CC=C)ccc2O)c1` [MAGNOLOL] as the molecule, how does the MIC [14] read?
Its MIC is 25 µg/mL (≈ 93.9 µM).

And the MIC [15]?
The MIC was 16 to 32 µg/mL (≈ 60.1 to 120 µM).

What about the MIC [16] of the same molecule?
Its MIC is 25 µg/mL (≈ 93.9 µM).

With `CCCCCCCCCCCCCCCCOP(=O)([O-])OCC[N+](C)(C)C` [MILTEFOSINE] as the molecule, how does the “inhibition (INH)” value [17] read?
The value was 90%.

And the “inhibition (INH)” value [18]?
The value was >90%.

And the MIC [19]?
Its MIC is 0.5 to 2 µg/mL (≈ 1.23 to 4.91 µM).

What does the source list for `O=[N+]([O-])c1ccc(O)c2ncccc12` [NITROXOLINE]?
pIC50 [8]: 5.24 to 6.00; pIC50 [9]: 5.24 to 6.00; pIC50 [10]: 5.24 to 6.00; MBEC2 [3]: 3.1 µM

Which MBIC50 [11] does the source give for `C1CCC(C(CC2CCCCN2)C2CCCCC2)CC1.O=C(O)/C=C\C(=O)O` (centres undefined) [PERHEXILINE MALEATE] here?
The MBIC50 was 39 µM.

For `COc1cc(/C=C/c2ccc(O)cc2)cc(OC)c1` [PTEROSTILBENE], which MIC80 [20] is on record?
The MIC80 was 32 µg/mL (≈ 125 µM).

With `Cc1cc(/C=C/c2ccc3cc(N(C)C)ccc3[n+]2C)c(C)n1-c1ccccc1.Cc1cc(/C=C/c2ccc3cc(N(C)C)ccc3[n+]2C)c(C)n1-c1ccccc1.O=C([O-])c1cc2ccccc2c(Cc2c(O)c(C(=O)[O-])cc3ccccc23)c1O` [PYRVINIUM PAMOATE] as the molecule, how does the pIC50 ([2]; Candida albicans, SC5314, 24 h) read?
The pIC50 was 5.17.

And the MBEC2 [3]?
Its MBEC2 is 3.9 µM.

With `CO[C@H]1C[C@@H]2CC[C@@H](C)[C@@](O)(O2)C(=O)C(=O)N2CCCC[C@H]2C(=O)O[C@H]([C@H](C)C[C@@H]2CC[C@@H](O)[C@H](OC)C2)CC(=O)[C@H](C)/C=C(\C)[C@@H](O)[C@@H](OC)C(=O)[C@H](C)C[C@H](C)/C=C/C=C/C=C/1C` [SIROLIMUS] as the molecule, how does the pIC50 [21] read?
The pIC50 was 6.29.

What about the CC50 at 24 h [22] of the same molecule?
The CC50 at 24 h was 67.2 µM.

With `CCCCCCCCCCCCCCCC[N+](C)(C)CCN(Cc1ccc(OC)cc1)c1ncccn1` [THONZONIUM BROMIDE] as the molecule, how does the pIC50 ([2]; Candida albicans, SC5314, 24 h) read?
Its pIC50 is 4.89.

With `CN(C)CCOc1ccc(/C(=C(/CCCl)c2ccccc2)c2ccccc2)cc1.O=C(O)CC(O)(CC(=O)O)C(=O)O` [TOREMIFENE CITRATE] as the molecule, how does the MBIC50 [11] read?
The MBIC50 was 19.5 µM.

With THIMEROSAL as the molecule, how does the pIC50 [2] read?
The pIC50 was 6.70.
